Assay results reported in patent publication US10435369B2, “Tricyclic sulfones as ROR gamma modulators” (BRISTOL-MYERS SQUIBB COMPANY, priority 2016, dated 2019).
Like-named read-outs stand apart in the source and are kept apart here.

Target: RORγ receptor (Homo sapiens, UniProt P51449)
Test: RORγ Gal4 reporter assay (Gal4-luciferase, inverse agonist activity)
Type: cell-based
Procedure: General RORγ Gal4 Reporter Assay
IC50 values were determined.

[1] = Jurkat cells stably over-expressing hRORγ, Gal4-luciferase reporter, overnight incubation, read-out: RORγ Gal4, IC50

Sequence of RORγ receptor (P51449 269-508): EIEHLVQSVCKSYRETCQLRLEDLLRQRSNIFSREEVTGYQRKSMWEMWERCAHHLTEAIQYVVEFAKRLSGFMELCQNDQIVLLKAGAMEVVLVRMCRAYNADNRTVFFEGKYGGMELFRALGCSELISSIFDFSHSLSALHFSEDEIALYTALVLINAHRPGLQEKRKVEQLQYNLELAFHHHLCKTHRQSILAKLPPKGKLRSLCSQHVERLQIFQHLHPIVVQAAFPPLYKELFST

Compound	IC50 [1]	IC50
CC(NC(=O)[C@@H]1C[C@@H](F)C(=O)N1)[C@@H]1CC[C@@]2(S(=O)(=O)c3ccc(F)cc3)c3ccc(C(F)(C(F)(F)F)C(F)(F)F)cc3CC[C@@H]12 (some centres unmarked) [Example 268]	21 nM	–
CC(NC(=O)[C@H](C)N)[C@@H]1CC[C@@]2(S(=O)(=O)c3ccc(F)cc3)c3ccc(C(F)(C(F)(F)F)C(F)(F)F)cc3CC[C@@H]12 (some centres unmarked) [Example 271]	45 nM	–
CC(NS(=O)(=O)c1cnn(C)c1)[C@@H]1CC[C@@]2(S(=O)(=O)c3ccc(F)cc3)c3ccc(C(F)(C(F)(F)F)C(F)(F)F)cc3CC[C@@H]12 (stereo partly drawn) [Example 272, N-(1-((3R,3aS,9bS)-9b-((4-fluorophenyl)sulfonyl)-7-(perfluoropropan-2-yl)-2,3,3a,4,5,9b-hexahydro-1H-cyclopenta[a]naphthalen-3-yl)ethyl)-1-methyl-1H-pyrazole-4-sulfonamide]	27 nM	–
CC(NS(=O)(=O)c1cnn(C)c1)[C@@H]1CC[C@@]2(S(=O)(=O)c3ccc(F)cc3)c3ccc(C(F)(C(F)(F)F)C(F)(F)F)cc3CC[C@@H]12 (some centres unmarked) [Example 273]	26 nM	–
CC(NS(=O)(=O)c1nc[nH]n1)[C@@H]1CC[C@@]2(S(=O)(=O)c3ccc(F)cc3)c3ccc(C(F)(C(F)(F)F)C(F)(F)F)cc3CC[C@@H]12 (some centres unmarked) [Example 274]	62 nM	–
CC(NS(=O)(=O)c1nc[nH]n1)[C@@H]1CC[C@@]2(S(=O)(=O)c3ccc(F)cc3)c3ccc(C(F)(C(F)(F)F)C(F)(F)F)cc3CC[C@@H]12 (some centres unmarked) [Example 275]	65 nM	–
CS(=O)(=O)N[C@H]1C[C@H](NC(=O)[C@@H]2CC[C@@]3(S(=O)(=O)c4ccc(F)cc4)c4ccc(C(F)(C(F)(F)F)C(F)(F)F)cc4CC[C@@H]23)C1 [Example 276]	52 nM	–
CS(=O)(=O)N1CCC(CNC(=O)[C@@H]2CC[C@@]3(S(=O)(=O)c4ccc(F)cc4)c4ccc(C(F)(C(F)(F)F)C(F)(F)F)cc4CC[C@@H]23)C1 (some centres unmarked) [Example 277]	6 nM	–
CS(=O)(=O)N1CCC(CNC(=O)[C@@H]2CC[C@@]3(S(=O)(=O)c4ccc(F)cc4)c4ccc(C(F)(C(F)(F)F)C(F)(F)F)cc4CC[C@@H]23)C1 (some centres unmarked) [Example 278]	7 nM	–
CS(=O)(=O)N1CC(O)(CNC(=O)[C@@H]2CC[C@@]3(S(=O)(=O)c4ccc(F)cc4)c4ccc(C(F)(C(F)(F)F)C(F)(F)F)cc4CC[C@@H]23)C1 [Example 279]	19 nM	–
NS(=O)(=O)N[C@H]1C[C@@H](NC(=O)[C@@H]2CC[C@@]3(S(=O)(=O)c4ccc(F)cc4)c4ccc(C(F)(C(F)(F)F)C(F)(F)F)cc4CC[C@@H]23)C1 [Example 280, (3R,3aS,9bS)-9b-((4-fluorophenyl)sulfonyl)-7-(perfluoropropan-2-yl)-N-((1s,3S)-3-(sulfamoylamino)cyclobutyl)-2,3,3a,4,5,9b-hexahydro-1H-cyclopenta[a]naphthalene-3-carboxamide]	22 nM	–
NS(=O)(=O)N[C@H]1C[C@@H](NC(=O)[C@@H]2CC[C@@]3(S(=O)(=O)c4ccc(F)cc4)c4ccc(C(F)(C(F)(F)F)C(F)(F)F)cc4CC[C@@H]23)C1 [Example 281]	58 nM	–
O=C(N[C@@H]1CC[C@@]2(S(=O)(=O)c3ccc(F)cc3)c3ccc(C(F)(C(F)(F)F)C(F)(F)F)cc3CC[C@@H]12)C1(F)CCS(=O)(=O)CC1 [Example 298, 4-fluoro-N-((3R,3aS,9bS)-9b-((4-fluorophenyl)sulfonyl)-7-(perfluoropropan-2-yl)-2,3,3a,4,5,9b-hexahydro-1H-cyclopenta[a]naphthalen-3-yl)tetrahydro-2H-thiopyran-4-carboxamide 1,1-dioxide]	7 nM	–
O=C(N[C@@H]1CC[C@@]2(S(=O)(=O)c3ccc(F)cc3)c3ccc(C(F)(C(F)(F)F)C(F)(F)F)cc3CC[C@@H]12)C1=CCS(=O)(=O)CC1 [Example 299, N-((3R,3aS,9bS)-9b-((4-fluorophenyl)sulfonyl)-7-(perfluoropropan-2-yl)-2,3,3a,4,5,9b-hexahydro-1H-cyclopenta[a]naphthalen-3-yl)-3,6-dihydro-2H-thiopyran-4-carboxamide 1,1-dioxide]	–	5 nM
